These results are taken from ChEMBL document CHEMBL1201862, “PubChem BioAssay data set” (2004).

Molecules are shown by their SMILES.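 Growth conditions: 96-well plates. Treatment: test compound, 48 hours, 5 concentrations. Analysis: linear interpolation between bracketing concentrations; unreached endpoints set to highest concentration. Here, GI50 denotes the concentration required for 50% inhibition of growth.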 The source made the active and inactive calls. Cut-off read from the data, not from the text of the source: active = GI50 up to about 1.1 µM and inactive = higher. A value given as a limit tells only on which side of the number the result lay.

Test systems include NCI-H460; OVCAR-8; TK-10; SF-295; HOP-92; Malme-3M; SK-MEL-5; M14; SF-268; HOP-62; HT-29; OVCAR-3; OVCAR-5; MDA-N; U-251; HL-60; CAKI-1; CCRF-CEM; SN12C; SR.
Assay in all cases: DTP human tumour cell line panel, 48 h

For orientation: GI50 means the concentration that inhibits growth by half. Take `O=C1OC(=O)C2CCCC3CCCC1C32` (centres undefined): the GI50 in the experiment with NCI-H460, in the experiment on OVCAR-8, with TK-10, in the experiment with SF-295, with HOP-92 and in the experiment with Malme-3M was > 100 µM (inactive) in each case. Further, the GI50 in the experiment with SK-MEL-5, with M14, in the experiment with SF-268, with HOP-62, in the experiment on HT-29 and in the experiment on OVCAR-3 was > 100 µM (inactive) in each case. Moreover, the GI50 in the experiment with OVCAR-5, in the experiment on MDA-N, in the experiment with U-251, in the experiment on HL-60, in the experiment on CAKI-1 and in the experiment with CCRF-CEM was > 100 µM (inactive) throughout. The GI50 in the experiment with SN12C is > 100 µM (inactive).

In the case of `CN(C)CCCNC(=O)CCNC(=O)c1cc(NC(=O)c2cc(NC(=O)c3cc(NC(=O)c4nccn4C)cn3C)cn2C)cn1C`, the GI50 with NCI-H460, in the experiment on OVCAR-8, in the experiment with TK-10, in the experiment on SF-295, in the experiment on HOP-92 and in the experiment on Malme-3M was > 100 µM (inactive) each time. Further, the GI50 is > 100 µM (inactive) with SK-MEL-5; > 100 µM (inactive) with M14; 44.8 µM (inactive) in the experiment with SF-268; > 100 µM (inactive) in the experiment on HOP-62; > 100 µM (inactive) with HT-29; > 78.2 µM (inactive) in the experiment on OVCAR-3. For the same compound, the GI50 in the experiment with OVCAR-5 was > 100 µM (inactive); in the experiment with MDA-N, > 100 µM (inactive); in the experiment on U-251, 13.4 µM (inactive); in the experiment with HL-60, 18.8 µM (inactive); in the experiment on CAKI-1, > 100 µM (inactive); in the experiment with CCRF-CEM, > 46.8 µM (inactive). Also, in the experiment on SN12C, the GI50 was > 100 µM (inactive).

Consider `OC(CCN1CCN(CCOC(c2ccccc2)c2ccccc2)CC1)c1ccccc1` (centres undefined), for which the GI50 in the experiment on NCI-H460 is 18.6 µM (inactive); in the experiment on OVCAR-8 it was 17.7 µM (inactive); in the experiment with TK-10, 22.3 µM (inactive); in the experiment on SF-295, 20.1 µM (inactive); in the experiment with HOP-92, 22.5 µM (inactive); with Malme-3M it was 17.5 µM (inactive). In addition, the GI50 with SK-MEL-5 is 15.3 µM (inactive); with M14, 18.1 µM (inactive); in the experiment on SF-268, 22.8 µM (inactive); in the experiment with HOP-62, 20.5 µM (inactive); in the experiment with HT-29, 15.9 µM (inactive); in the experiment on OVCAR-3 it was 25.6 µM (inactive). For the same compound, the GI50 with OVCAR-5 is 33.2 µM (inactive); in the experiment with MDA-N, 19.3 µM (inactive); in the experiment on U-251, 16.3 µM (inactive); in the experiment with HL-60, 16.7 µM (inactive); with CAKI-1 it was 32 µM (inactive); with CCRF-CEM, 27.7 µM (inactive). Moreover, the GI50 in the experiment with SN12C was 29.1 µM (inactive).

Consider `COC1CCC(=O)N1CN(C(C)=O)c1ccc(C)cc1` (centres undefined), for which the GI50 with NCI-H460, with OVCAR-8, in the experiment with TK-10, in the experiment with SF-295, with SR and in the experiment with SK-MEL-5 was > 100 µM (inactive) each time. Also, the GI50 in the experiment on M14, in the experiment on SF-268, with HOP-62, with HT-29, in the experiment on OVCAR-3 and with OVCAR-5 was > 100 µM (inactive) throughout. Also, the GI50 is > 100 µM (inactive) in the experiment on MDA-N; > 100 µM (inactive) with U-251; > 100 µM (inactive) in the experiment with CAKI-1; 0.0569 µM (active) in the experiment with CCRF-CEM; > 100 µM (inactive) in the experiment with SN12C.

Turning to `CCc1c(Cl)c(C)cc(O)c1Cl`, the GI50 in the experiment with NCI-H460 was 32.7 µM (inactive); in the experiment with OVCAR-8, 44.3 µM (inactive); in the experiment with TK-10 it was > 100 µM (inactive); in the experiment with SF-295 it was 33.1 µM (inactive); with HOP-92 it was 23.2 µM (inactive); with Malme-3M, 30.1 µM (inactive). In addition, the GI50 was 15.3 µM (inactive) in the experiment with SK-MEL-5; 34.7 µM (inactive) in the experiment on M14; 53.8 µM (inactive) in the experiment on SF-268; > 100 µM (inactive) in the experiment on HOP-62; 27.5 µM (inactive) in the experiment on HT-29; 52 µM (inactive) with OVCAR-3. Also, the GI50 in the experiment with OVCAR-5 was > 100 µM (inactive); in the experiment on MDA-N, 19.4 µM (inactive); with U-251, 15.6 µM (inactive); with HL-60, 18.3 µM (inactive); in the experiment on CAKI-1 it was 74.1 µM (inactive); in the experiment with CCRF-CEM, 25.7 µM (inactive). Moreover, the GI50 in the experiment on SN12C was 16.7 µM (inactive).

In the case of `C=C1C(C[C@@H]2O[C@H]3C[C@H]4O[C@@]5(C[C@@H]6O[C@]7(C[C@H](C)[C@@H]8O[C@@H]9CC(C(O)CO)O[C@@H]9C[C@@H]8O7)C[C@H](C)[C@@H]6O5)C[C@H]4O[C@H]3[C@H](C)[C@H]2O)O[C@@H](CC[C@@H]2O[C@@H](CC[C@@]34CC5O[C@H]6C(O[C@H]7CC[C@H](CC(=O)OC)O[C@@H]7[C@@H]6O3)[C@H]5O4)CC2=C)C[C@H]1C` (some centres undefined), the GI50 in the experiment with NCI-H460 was < 0.0001 µM (active); in the experiment with OVCAR-8, 0.000209 µM (active); in the experiment on TK-10, 0.0152 µM (active); in the experiment with SF-295 it was < 0.0001 µM (active); with SR, < 0.0001 µM (active); in the experiment with SK-MEL-5 it was < 0.0001 µM (active). The GI50 is 0.000124 µM (active) in the experiment with M14; 0.000184 µM (active) in the experiment with SF-268; 0.000396 µM (active) in the experiment with HOP-62; < 0.0001 µM (active) with OVCAR-3; 0.00142 µM (active) in the experiment with OVCAR-5; < 0.0001 µM (active) with MDA-N. Further, the GI50 is < 0.0001 µM (active) with U-251; < 0.0001 µM (active) with HL-60; 0.000286 µM (active) in the experiment on CAKI-1; < 0.0001 µM (active) in the experiment with CCRF-CEM; 0.000211 µM (active) with SN12C.

In the case of `Cc1ccc(S(=O)(=O)C2=Cc3ccccc3C2(O)c2ccccc2)cc1` (centres undefined), the GI50 in the experiment with NCI-H460 is 22.7 µM (inactive); in the experiment on OVCAR-8, 22.8 µM (inactive); in the experiment on TK-10, 35.3 µM (inactive); in the experiment on SF-295 it was 25.4 µM (inactive); in the experiment on SR it was 22.2 µM (inactive); in the experiment on SK-MEL-5 it was 16.6 µM (inactive). Besides, the GI50 in the experiment on M14 was 13.5 µM (inactive); with SF-268, 27.2 µM (inactive); with HOP-62 it was > 10 µM (inactive); in the experiment with HT-29 it was 19.7 µM (inactive); in the experiment on OVCAR-5 it was 60.4 µM (inactive); in the experiment on MDA-N it was 18.7 µM (inactive). Besides, the GI50 was 26.7 µM (inactive) with U-251, 13.2 µM (inactive) in the experiment on HL-60, 15.7 µM (inactive) in the experiment on CCRF-CEM and 17.4 µM (inactive) in the experiment with SN12C.

`CC1=C(c2ccccc2)NC(=S)C(C)C(c2ccccc2)=N1` (centres undefined): the GI50 is 34.4 µM (inactive) with NCI-H460; 83.4 µM (inactive) in the experiment with OVCAR-8; 58.2 µM (inactive) in the experiment with TK-10; 29.1 µM (inactive) in the experiment with SF-295; 22 µM (inactive) with SR; 32.7 µM (inactive) in the experiment with Malme-3M. Also, the GI50 was 24.9 µM (inactive) with SK-MEL-5; 27.5 µM (inactive) with SF-268; > 100 µM (inactive) in the experiment with HOP-62; 32.4 µM (inactive) in the experiment with HT-29; > 100 µM (inactive) in the experiment with OVCAR-5; 16.9 µM (inactive) in the experiment with MDA-N. Further, the GI50 was 55.6 µM (inactive) in the experiment with U-251; 12.6 µM (inactive) with HL-60; 56.6 µM (inactive) in the experiment with CAKI-1; 12.1 µM (inactive) in the experiment on CCRF-CEM; 56.2 µM (inactive) with SN12C.

With `CC1=C[C@@H]2Cc3nc4cc(Cl)ccc4c(N)c3[C@H](C1)C2`, the GI50 in the experiment with NCI-H460 is 9.02 µM (inactive); with OVCAR-8, 15.3 µM (inactive); with TK-10 it was 5.78 µM (inactive); in the experiment with SF-295, 6.17 µM (inactive); with HOP-92, 0.685 µM (active); in the experiment with Malme-3M it was 12 µM (inactive). Moreover, the GI50 was 2.84 µM (inactive) in the experiment with SK-MEL-5; 4.57 µM (inactive) with M14; 12.5 µM (inactive) in the experiment on SF-268; 11.2 µM (inactive) in the experiment with HOP-62; 2.68 µM (inactive) in the experiment with HT-29; 10.4 µM (inactive) in the experiment on OVCAR-3. The GI50 in the experiment with OVCAR-5 is 4.28 µM (inactive); in the experiment on MDA-N it was 15.5 µM (inactive); with U-251, 13.4 µM (inactive); in the experiment on HL-60, 15.3 µM (inactive); in the experiment with CAKI-1 it was 3.89 µM (inactive); in the experiment with CCRF-CEM, 12.2 µM (inactive). The GI50 in the experiment on SN12C is 12.4 µM (inactive).

As for `Nc1ncnc2c1ccn2COC(CO)CO`, the GI50 with NCI-H460, with OVCAR-8, in the experiment with TK-10, in the experiment on SF-295, in the experiment on HOP-92 and in the experiment with Malme-3M was > 100 µM (inactive) in each case. In addition, the GI50 in the experiment on SK-MEL-5 is > 100 µM (inactive); in the experiment on M14 it was 79.6 µM (inactive); with SF-268, > 100 µM (inactive); with HOP-62 it was > 100 µM (inactive); in the experiment with HT-29 it was > 100 µM (inactive); with OVCAR-3, > 100 µM (inactive). In addition, the GI50 is > 100 µM (inactive) with OVCAR-5; > 100 µM (inactive) in the experiment on MDA-N; > 100 µM (inactive) in the experiment with U-251; 90.6 µM (inactive) in the experiment on HL-60; > 100 µM (inactive) in the experiment on CAKI-1; > 100 µM (inactive) with CCRF-CEM. Besides, in the experiment on SN12C, the GI50 was > 100 µM (inactive).

On to `COc1ccc(OC)c2c1C(=O)C(O)=C(Cl)C2=O`, for which the GI50 with NCI-H460, with OVCAR-8, in the experiment on TK-10, with SF-295, in the experiment with HOP-92 and in the experiment on Malme-3M was > 100 µM (inactive) each time. In addition, the GI50 with SK-MEL-5, in the experiment with M14, in the experiment with SF-268, with HOP-62, in the experiment on HT-29 and in the experiment on OVCAR-3 was > 100 µM (inactive) in each case. For the same compound, the GI50 with OVCAR-5, in the experiment with MDA-N, with U-251, in the experiment with HL-60, in the experiment with CAKI-1 and with CCRF-CEM was > 100 µM (inactive) in each case.
